The supplement of paper PMC10307832

Tests used:
Experiment in all cases: relative viability (nuclei count vs DMSO), 5 days (fraction); higher = more cells survive
Dasatinib + Linsitinib = compound: Cc1nc(Nc2ncc(C(=O)Nc3c(C)cccc3Cl)s2)cc(N2CCN(CCO)CC2)n1 [Dasatinib] + C[C@]1(O)C[C@@H](c2nc(-c3ccc4ccc(-c5ccccc5)nc4c3)c3c(N)nccn32)C1 [Linsitinib] (partner 1 µM)
Method in brief: (§1)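 Relative viability divides the nuclei count in treated wells by that in vehicle wells. Lung cancer cell lines were seeded in 1536-well plates, dosed by pin tool the next day, and fixed and stained after 5 days in one step with final 0.05% Triton X-100, 1% formaldehyde and 1 ug/ml Hoechst. Dosing was a single drug or a fixed anchor-drug dose plus five library-drug doses (not always all listed) in √10 steps, and values are medians of duplicate plates imaged at 4×.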

ALW-II-49-7 + Foretinib = compound: Cc1ccc(C(=O)Nc2cccc(C(F)(F)F)c2)cc1Nc1cncc(C(N)=O)c1 [ALW-II-49-7] + COc1cc2c(Oc3ccc(NC(=O)C4(C(=O)Nc5ccc(F)cc5)CC4)cc3F)ccnc2cc1OCCCN1CCOCC1 [Foretinib] (partner 0.25 µM)
Method in brief: as §1

Dasatinib + Foretinib = compound: Cc1nc(Nc2ncc(C(=O)Nc3c(C)cccc3Cl)s2)cc(N2CCN(CCO)CC2)n1 [Dasatinib] + COc1cc2c(Oc3ccc(NC(=O)C4(C(=O)Nc5ccc(F)cc5)CC4)cc3F)ccnc2cc1OCCCN1CCOCC1 [Foretinib] (partner 0.25 µM)
Method in brief: as §1

Dasatinib + Pemetrexed = compound: Cc1nc(Nc2ncc(C(=O)Nc3c(C)cccc3Cl)s2)cc(N2CCN(CCO)CC2)n1 [Dasatinib] + Nc1nc2[nH]cc(CCc3ccc(C(=O)N[C@@H](CCC(=O)O)C(=O)O)cc3)c2c(=O)[nH]1 [Pemetrexed] (partner 0.2 µM)
Method in brief: as §1

Cell Line	relative viability (Dasatinib + Linsitinib; first compound 0.005 µM)	relative viability (Dasatinib + Linsitinib; first compound 0.01581 µM)	relative viability (Dasatinib + Linsitinib; first compound 0.05 µM)	relative viability (Dasatinib + Linsitinib; first compound 0.1581 µM)	relative viability (Dasatinib + Linsitinib; first compound 0.5 µM)	relative viability (ALW-II-49-7 + Foretinib; first compound 0.08 µM)	relative viability (ALW-II-49-7 + Foretinib; first compound 0.253 µM)	relative viability (ALW-II-49-7 + Foretinib; first compound 0.8 µM)	relative viability (ALW-II-49-7 + Foretinib; first compound 2.53 µM)	relative viability (ALW-II-49-7 + Foretinib; first compound 8 µM)	relative viability (Dasatinib + Foretinib; first compound 0.005 µM)	relative viability (Dasatinib + Foretinib; first compound 0.01581 µM)	relative viability (Dasatinib + Foretinib; first compound 0.05 µM)	relative viability (Dasatinib + Foretinib; first compound 0.1581 µM)	relative viability (Dasatinib + Foretinib; first compound 0.5 µM)	relative viability (Dasatinib + Pemetrexed; first compound 0.005 µM)	relative viability (Dasatinib + Pemetrexed; first compound 0.01581 µM)	relative viability (Dasatinib + Pemetrexed; first compound 0.05 µM)	relative viability (Dasatinib + Pemetrexed; first compound 0.1581 µM)	relative viability (Dasatinib + Pemetrexed; first compound 0.5 µM)
NCI-H727	0.233	0.249	0.262	0.13	0.152	1.17	0.832	1.1	0.912	1.08	0.616	0.512	0.431	0.278	0.185	–	–	–	–	–
ABC-1	0.743	0.704	0.592	0.452	0.49	0.959	1.11	1.14	0.863	1.42	1.08	0.906	0.948	0.692	0.487	–	–	–	–	–
NCI-H2023	0.439	0.384	0.426	0.329	0.188	0.841	1.02	0.966	1.02	1.09	0.642	0.749	0.434	0.377	0.297	0.204	0.238	0.195	0.175	0.191
NCI-H2342	–	–	–	–	–	1.19	0.986	1.07	1.03	0.981	1.02	0.662	0.977	0.51	0.34	0.742	0.705	0.676	0.514	0.285
SW 1573	0.747	0.648	0.6	0.425	0.435	0.92	0.729	0.945	1.19	1.02	1.05	0.746	0.783	0.695	0.525	0.889	–	0.742	0.607	0.548
NCI-H1993	0.61	0.756	0.675	0.629	0.597	0.7	0.852	0.797	0.756	0.892	0.641	0.59	0.561	0.472	0.496	0.591	0.498	0.616	0.395	0.385
NCI-H661	0.43	0.329	0.31	0.236	0.215	1.17	1.08	0.954	1.01	0.884	1.02	1.03	0.964	0.735	0.599	0.913	0.823	0.889	0.763	0.51
ChaGo-K-1	–	–	–	–	–	0.971	0.968	0.931	0.905	0.91	0.922	0.881	0.874	0.725	0.667	0.256	0.255	0.254	0.244	0.235
NCI-H1703	0.139	0.29	0.247	0.0903	0.144	0.271	0.407	0.306	0.308	0.352	0.276	0.292	0.23	0.202	0.262	–	–	–	–	–
NCI-H1650	–	–	–	–	–	1.04	1.18	1.08	1.05	1.13	0.877	0.64	0.635	0.247	0.262	0.341	0.38	0.287	0.285	0.268
NCI-H522	–	–	–	–	–	–	–	–	–	–	–	–	–	–	–	1.04	1.03	0.914	0.706	0.681
SW 900	–	–	–	–	–	0.943	0.866	0.96	0.913	0.831	0.685	0.608	0.787	0.476	0.225	0.47	0.348	0.43	0.186	0.203
NCI-H1792	0.491	0.355	0.377	0.219	0.0845	–	–	–	–	–	–	–	–	–	–	0.709	0.672	0.605	0.267	0.067
NCI-H1623	–	–	–	–	–	0.889	0.809	0.87	0.649	0.859	0.855	0.675	0.8	0.672	0.457	–	–	–	–	–
IA-LM	0.787	0.732	0.65	0.712	0.475	1.06	0.999	1.28	1.02	0.416	1.16	1.09	1.1	0.634	0.462	–	–	–	–	–
NCI-H2170	–	–	–	–	–	0.908	1.12	1.01	0.999	1.01	0.958	0.927	0.708	0.678	0.491	0.255	0.257	0.243	0.221	0.206
EBC-1	0.787	0.805	0.782	0.589	0.467	0.0976	0.11	0.098	0.0988	0.114	0.106	–	0.0991	0.121	0.0976	–	–	–	–	–
NCI-H1299	0.978	0.996	0.93	0.286	0.146	1.09	1.16	1.09	0.996	0.965	1.11	0.708	1.09	0.386	0.255	–	–	–	–	–
